Assay results as given in US6458838B1, “Adrenoleukodystrophy treatments” (Johns Hopkins University, priority 1999, dated 2002).

Experiments:
[1] = system: X-ALD mouse primary fibroblasts; assay: C24:0 β-oxidation activity ([1-14C]-C24:0 to water-soluble products); assay type: cell-based; details: 5 mM 4PBA for 6 days
Description: (§1) Human Tibroblast C24:0 β-oxidation increased from 25% to 48% of normal; human lymphobfastoid cells, from 18% to 53% of normal; and mouse fibroblasts, from 15% to 29% of normal. […] There are several possible mechanisms that could account for the action of 4-PBA in X-ALD.
(§2) Cell culture and 4-PBA treatment. Cell lines derived from X-ALD patients and X-ALD mice were grown in MEM (fibroblasts) or RPMI (ymphoblastoid cells) supplemented with fetal calf serum (10%), penicillin (100 U/ml), streptomycin (100 U/mi) and glutamine (2 mM). […] Cells in the second flask were grown without drug for the same length of time and served as controls. The media were changed every 3-4 days.
(§3) Biochemical measurements. […] For VLCFA measurements, total lipids were extracted, converted to methyl esters, purified by TLC and subjected to capillary GC analysis as described. Duplicate assays were set up independently and were assayed on different days. C24:0 β-oxidation activity of human and mouse fibroblasts and human lymphoblastoid cells was determined by measuring their capacity to degrade [1-^14C]-C24:0 fatty acid (American Radiolabeled Chemicals, St Louis, Mo.) to water-soluble products as described. Phytanic acid oxidation was measured as described. Cells were incubated with [2,3-^3H]-phytanic acid for 24 hours, and the release of ^3H-H2O to the aqueous medium was determined (activity in pmol/hr per mg protein).

[2] = system: X-ALD human primary fibroblasts; assay: as above; assay type: cell-based
Description: as §1, §2, §3

[3] = system: X-ALD human lymphoblastoid cells; assay: as above; assay type: cell-based; details: 5 mM 4PBA for 6 days
Description: as §1, §2, §3

Pex11α = assay: Semi-quantitative RT-PCR in primary fibroblasts; assay type: cell-based
Description: Semi-quantitative RT-PCR analysis. Total RNA from tissue culture cells (10^6-10^7 cells/sample) was isolated using TRizol Reagent™ (Life Technologies), treated with DNase I (100-200 units in 40 mM HCI, 10 mM NaCl, 6 mM MgCl2, pH 7.3), incubated at 37° C. for 30 min, extracted with phenol/chloroform, and precipitated with isopropanol. cDNA was generated using MMLV reverse transcriptase (RT) (Life Technologies). PCR was done in the linear range of amplification (determined for each primerpair-cDNA combination). For each cDNA sample, a ‘cocktail’ was prepared, containing PCR buffer (Promega), 200 µM of each DNTP, 1.5 mM MgCl2, 250 ng cDNA, 0.25 U of Taq polymerase (Promega) and […]. The ‘cocktail’ was divided into separate tubes containing cDNA specific primers.
Primers. The PCR primers used are listed below. In the parentheses, h indicates human and m, mouse; this is followed by the gene name, product size and annealing temperature. For primer sequences, F is forward and R is reverse. […]

[4] = system: patients with urea cycle disorders; details: used for many years; cited from earlier work
[5] = system: human primary fibroblasts; assay: Phytanic acid oxidation ([2,3-3H]-phytanic acid, release of 3H-H2O); assay type: cell-based; details: 5 mM 4-PBA for 10 days
From the text: The increase in phytanic acid oxidation activity was significant (P<0.001 5(n=4) for X-ALD primary fibroblasts and P<0.013 (n=3) for normal primary fibroblasts). […] The relative amount of SCP2 protein was compared to the housekeeping gene β-actin.
Phytanic acid oxidation occurs exclusively in the peroxisomal matrix and can therefore serve as a marker for peroxisomal function. […] SCP2 is a 15-kDa protein located exclusively in the peroxisomal matrix.
as §3

[6] = system: human primary fibroblasts derived from X-ALD patients; assay: VLCFA (C24:0, C26:0) levels in cultured cells, capillary GC; assay type: cell-based
From the text: The genotypes of the X-ALD patients included missense, nonsense, frame shift and deletion mutations and all of the main clinical phenotypes.
After two days of treatment, a time-dependent reduction in VLCFA levels in human and mouse X-ALD cell lines was observed. In human lymphoblastoid cells and mouse fibroblasts, C24:0 and C26:0 levels were normalized within 10 days of treatment, In human X-ALD fibroblasts, C24:0 levels were normalized within 10 days, whereas C26:0 levels were reduced by 47% after 22 days. The results obtained were independent of genotype or phenotype.
Cell culture and 4-PBA treatment. Cell lines derived from X-ALD patients and X-ALD mice were grown in MEM (fibroblasts) or RPMI (ymphoblastoid cells) supplemented with fetal calf serum (10%), penicillin (100 U/ml), streptomycin (100 U/mi) and glutamine (2 mM). […]
Biochemical measurements. […] C24:0 β-oxidation activity of human and mouse fibroblasts and human lymphoblastoid cells was determined by measuring their capacity to degrade [1-^14C]-C24:0 fatty acid (American Radiolabeled Chemicals, St Louis, Mo.) to water-soluble products as described. Phytanic acid oxidation was measured as described. Cells were incubated with [2,3-^3H]-phytanic acid for 24 hours, and the release of ^3H-H2O to the aqueous medium was determined (activity in pmol/hr per mg protein).

With `O=C(O)CCCc1ccccc1` [4-PBA, 4-Phenyl butyrate] the “C24:0 β-oxidation, Increase (treated vs untreated)” value (from here on “C24:0 β-oxidation, Increase”) [1] was 1.87 fold, the “increase in C24:0 β-oxidation” value ([2]; 5 mM 4-PBA for 6 days, all X-ALD cell lines tested (human and mouse)) was “twofold to threefold increase” and the “C24:0 β-oxidation, Increase” value ([2]; 5 mM 4PBA for 6 days) was 1.95 fold. The “C24:0 β-oxidation, Increase” value [3] was 2.92 fold, the Pex11α expression (Pex11α; human fibroblasts, 5 mM 4-PBA, after 2 days) was “substantial increase” and the Pex11α transcripts (Pex11α; normal or X-ALD mouse fibroblasts, before or after 10 day exposure to 5 mM 4-PBA, data not shown) was “undetectable”. The side effects [4] was “few, if any, side effects”, the phytanic acid oxidation ([5]; X-ALD human primary fibroblasts) was “twofold increase” and the phytanic acid oxidation ([5]; normal human primary fibroblasts) was “twofold increase”. For the same compound, the “C26:0 levels reduced by” value ([6]; 5 mM 4-PBA, after 22 days) was 47% and the “effect of concentration on VLCFA levels” value ([6]; between 1 mM and 5 mM 4-PBA, human X-ALD fibroblasts and lymphoblastoid cells, data not shown) was “dose-dependent decrease”.
